Data reported in US5061720A, “Substituted-4-thiazolidinone derivatives” (A. H. Robins Company, Inc., priority 1989, dated 1991).
pIC50: −log10 of the molar value.

Each compound was assayed against T1, cyclooxygenase (Ovis aries, UniProt P05979) (assay: Cyclooxygenase Assay (polarigraphic oxygen consumption, lipid-depleted sheep seminal vesicle microsomes)). Settings: 30° C., 2 min incubation, ammonium arachidonate substrate.
T1 construct: Lipid-depleted Sheep Seminal Vesicle Microsome Suspension; from tissue; host or cells: sheep seminal vesicle microsomes (lipid-depleted powder, detergent solubilized)
T1 sequence (P05979 25-600): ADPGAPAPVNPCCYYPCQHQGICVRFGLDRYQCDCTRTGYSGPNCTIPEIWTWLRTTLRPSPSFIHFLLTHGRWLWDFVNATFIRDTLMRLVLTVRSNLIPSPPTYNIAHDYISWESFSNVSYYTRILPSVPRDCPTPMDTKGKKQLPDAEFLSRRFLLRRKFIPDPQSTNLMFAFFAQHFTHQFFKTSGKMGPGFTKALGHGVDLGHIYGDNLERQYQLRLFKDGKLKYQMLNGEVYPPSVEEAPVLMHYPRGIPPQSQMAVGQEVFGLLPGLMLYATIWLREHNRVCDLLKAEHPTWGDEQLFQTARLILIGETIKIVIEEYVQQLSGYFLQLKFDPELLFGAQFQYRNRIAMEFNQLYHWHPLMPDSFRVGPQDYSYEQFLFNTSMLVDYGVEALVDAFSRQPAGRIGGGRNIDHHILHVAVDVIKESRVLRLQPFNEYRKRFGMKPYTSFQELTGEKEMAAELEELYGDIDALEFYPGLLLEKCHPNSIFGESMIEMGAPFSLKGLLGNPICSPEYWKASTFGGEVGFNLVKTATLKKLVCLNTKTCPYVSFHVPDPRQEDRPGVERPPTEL
Assay type: biochemical
Description: Cyclooxygenase activity was determined polarigraphically with detergent solubilized, lipid-depleted sheep seminal vesical microsomes. Addition of test articles that inhibit cyclooxygenase, including reference standards, cause a decrease in the rate of oxygen consumption in the reactions. Cyclooxygenase activity is determined using the following procedures:
I. Preparation of Test Materials
1. Lipid-Depleted Sheep Seminal Vesicle Microsomal Powder. This preparation follows the procedure of G. Graff et al. J. Biol. Chem. 253, 7662 (1978).
2. Ammonium Arachidonate Solution. A 250 μL aliquot of 20.0 mM arachidonic acid in absolute ethanol and a 50-μL aliquot of concentrated ammonium hydroxide is placed into a test tube. The solvent and excess ammonium hydroxide is evaporated under a stream of nitrogen at room temperature. The ammonium arachidonate residue is dissolved in 500 μL of 100 mM 2-amino-2-hydroxymethyl-1,3-propanediol hydrochloride (Tris HCl) buffer (pH 8.0) by using a vortex mixer. The final concentration of ammonium arachidonate (working solution) is 10.0 mM.
3. Enzyme Buffer 100 mM Tris HCl (pH 8.0) containing 2.0 mM phenol, 5.0 mM ethylenediaminetetraacetic acid (EDTA), 5.0 mM diethyldithiocarbamic acid and 1.0% Tween 20.
4. Reaction Buffer 100 mM Tris HCl (pH 8.0) containing 2.0 μM hematin and 1.0 mM phenol (prepared daily).
5. Detergent Solubilized Lipid-depleted Sheep Seminal Vesicle Microsome Suspension. Ten mg (solid) of lipid-depleted microsomal powder from sheep seminal vesicles is suspended in 1.0 mL of enzyme buffer and kept at 4° C. until used.
6. Solutions of Test (Formula I compound) or Reference Articles. Test and reference articles are dissolved in the reaction buffer prepared in 4) or a solvent that will not interfere with cyclooxygenase activity, e.g., dimethylsulfoxide, ethanol or acetone.
II. Cyclooxygenase Inhibition Assay
Three mL of the reaction buffer and 20 μL of the microsomal enzyme suspension are placed in a Yellow Springs Instrument (YSI) oxygen chamber where the temperature is maintained at 30° C. by means of a temperature controlled circulating water bath. Aliquots of the solutions containing ≤[…] of Formula I compound (test article) or reference article [see 6) above] are added to the YSI chamber and incubated for 2 minutes. The reaction is initiated by addition of 30 μL of the 10 mM ammonium arachidonate solution and cyclooxygenase activity determined polarigraphically using an oxygen electrode by measuring the rate of oxygen consumption [Cook et al., Anal. Biochem 96 341-51 (1979) and Cook and Lands, Can. J. Biochem. 53, 1220-1231 (1975)].
Test, reference, and control articles were evaluated in triplicate. Cyclooxygenase activity was determined from the slope (mv/unit time) of the recorder tracing with 1 mV being proportional to a 2.34 μM change in oxygen concentration.
The IC50 (concentration of test or reference article that inhibits the reaction by 50%) was calculated from cumulative plots relating the extent of inhibition of cyclooxygenase activity in control group assays to increasing concentrations of test article. Where no inhibition exists, the IC50 is expressed as greater than the highest concentration of the drug tested.

Structure (SMILES)	pIC50
CCCCC1SC(c2cccc(C(=O)c3ccccc3)c2)N(CCCCc2ccccc2)C1=O (stereo not shown) [Example 8, 2-(3-Benzoylphenyl)-5-butyl-3-(4-phenylbutyl)-4-thiazolidinone]	8.00
CC1SC(c2cccc(Oc3ccccc3)c2)N(CCCCc2ccccc2)C1=O (stereo not shown) [Example 7, 5-Methyl-2-(3-phenoxyphenyl)-3-(4-phenylbutyl)-4-thiazolidinone]	5.85
CCCCC1SC(c2cccc(Oc3ccccc3)c2)N(CCCCc2ccccc2)C1=O (stereo not shown) [Example 1, 5-Butyl-2-(3-phenoxyphenyl)-3-(4-phenylbutyl)-4-thiazolidinone]	7.05

Continued, values first:

pIC50	Structure (SMILES)
5.47	CCCCC1SC(c2cccc(Oc3ccccc3)c2)N(CCc2ccccc2)C1=O (stereo not shown) [Example 17, 5-Butyl-2-(3-phenoxyphenyl)-3-(2-phenylethyl)-4-thiazolidinone]
5.03	CCCCC1SC(c2cccc(Oc3ccccc3)c2)N(CCCCC(=O)O)C1=O (stereo not shown) [Example 45, 5-Butyl-4-oxo-2-(3-phenoxyphenyl)-3-thiazolidinepentanoic acid]
6.59	CCCC[C@@H]1S[C@H](c2cccc(Oc3ccccc3)c2)N(CCCCCC(=O)OCC)C1=O (relative stereo) [Example 51]
4.92	CCCC[C@@H]1S[C@@H](c2cccc(Oc3ccccc3)c2)NC1=O (relative stereo) [Example 83, 5-Butyl-2-(3-phenoxyphenyl)-4-thiazolidinone]
